Assays:
[1] = system: HCV replicon RNA (GenBank Accession No. AJ242654); assay: HCV Replicon Assay (replicon RNA reduction and/or Fluc reporter signal); type: cell-based, Hepatitis C virus; details: Hepatitis C virus, 72 h, replicon-containing cells cultured with test compound for up to 3 days
Method in brief: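 Bicistronic replicon-containing cells cultured with compound for up to 3 days, with interferon as positive control. Inhibition quantified by replicon RNA reduction and/or Fluc reporter signal; IC50 values generally derived from replicon RNA reduction.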

In the case of `N#Cc1cnc2c(c1)c(C#N)c(-c1ccc(S(=O)(=O)NC3(C(F)(F)F)CC3)cn1)n2C1CCC1` [Cpd 111, 6-(3,5-dicyano-1-cyclobutyl-1H-pyrrolo[2,3-b]pyridin-2-yl)-N-[1-(trifluoromethyl)cyclopropyl]pyridine-3-sulfonamide], the IC50 [1] is reported as under 500 nM and the melting point is reported as 207 to 208 °C.
`N#Cc1cnc2c(c1)c(C#N)c(-c1ccc(S(=O)(=O)NC3(C(F)(F)F)CC3)cc1)n2C1CCC1` [Cpd 112, 4-(3,5-dicyano-1-cyclobutyl-1H-pyrrolo[2,3-b]pyridin-2-yl)-N-[1-(trifluoromethyl)cyclopropyl]benzenesulfonamide] gave an IC50 [1] of under 500 nM and a melting point of 231 to 233 °C.
Work on `CC1(NS(=O)(=O)c2ccc(-c3c(C#N)c4cc(C#N)cnc4n3C3CCC3)nc2)CC1` [Cpd 113, 6-(3,5-dicyano-1-cyclobutyl-1H-pyrrolo[2,3-b]pyridin-2-yl)-N-(1-methylcyclopropyl)pyridine-3-sulfonamide] yielded an IC50 [1] of under 500 nM and a melting point of 198 to 200 °C.
`CC1(NS(=O)(=O)c2cnc(-c3c(C#N)c4cc(C#N)cnc4n3C3CCC3)nc2)CC1` [Cpd 114, 2-(3,5-dicyano-1-cyclobutyl-1H-pyrrolo[2,3-b]pyridin-2-yl)-N-(1-methylcyclopropyl)pyrimidine-5-sulfonamide] showed an IC50 [1] of under 500 nM and a melting point of 229 to 231 °C.
With `C[C@H](NS(=O)(=O)c1ccc(-c2c(C#N)c3cc(C4CC4)cnc3n2C2CCC2)cc1)C(F)(F)F` [Cpd 115, 4-(3-cyano-1-cyclobutyl-5-cyclopropyl-1H-pyrrolo[2,3-b]pyridin-2-yl)-N-[(2S)-1,1,1-trifluoropropan-2-yl]benzenesulfonamide] the IC50 [1] was 500 to 2000 nM and the melting point was 196 to 203 °C.
With `C[C@@H](NS(=O)(=O)c1ccc(-c2c(C#N)c3cc(C4CC4)cnc3n2C2CCC2)cc1)C(F)(F)F` [Cpd 116, 4-(3-cyano-1-cyclobutyl-5-cyclopropyl-1H-pyrrolo[2,3-b]pyridin-2-yl)-N-[(2R)-1,1,1-trifluoropropan-2-yl]benzenesulfonamide] the IC50 [1] was under 500 nM and the melting point was 190 to 195 °C.
Compound `C[C@H](NS(=O)(=O)c1ccc(-c2c(C#N)c3cc(C4CC4)cnc3n2C2CCC2)nc1)C(F)(F)F` [Cpd 117, 6-(3-cyano-1-cyclobutyl-5-cyclopropyl-1H-pyrrolo[2,3-b]pyridin-2-yl)-N-[(2S)-1,1,1-trifluoropropan-2-yl]pyridine-3-sulfonamide] has an IC50 [1] of under 500 nM and a melting point of 136 to 144 °C.
With `C[C@@H](NS(=O)(=O)c1ccc(-c2c(C#N)c3cc(C4CC4)cnc3n2C2CCC2)nc1)C(F)(F)F` [Cpd 118, 6-(3-cyano-1-cyclobutyl-5-cyclopropyl-1H-pyrrolo[2,3-b]pyridin-2-yl)-N-[(2R)-1,1,1-trifluoropropan-2-yl]pyridine-3-sulfonamide] the IC50 [1] was under 500 nM and the melting point was 138 to 147 °C.
In the case of `C[C@H](NS(=O)(=O)c1cnc(-c2c(C#N)c3cc(C4CC4)cnc3n2C2CCC2)nc1)C(F)(F)F` [Cpd 119, 2-(3-cyano-1-cyclobutyl-5-cyclopropyl-1H-pyrrolo[2,3-b]pyridin-2-yl)-N-[(2S)-1,1,1-trifluoropropan-2-yl]pyrimidine-5-sulfonamide], the IC50 [1] is reported as under 500 nM and the melting point is reported as 176 to 183 °C.
In the case of `CC(C)(NS(=O)(=O)c1ccc(-c2c(C#N)c3cc(C4CC4)cnc3n2C2CCC2)cc1)C(F)(F)F` [Cpd 121, 4-(3-cyano-1-cyclobutyl-5-cyclopropyl-1H-pyrrolo[2,3-b]pyridin-2-yl)-N-(1,1,1-trifluoro-2-methylpropan-2-yl)benzenesulfonamide], the IC50 [1] is reported as under 500 nM and the melting point is reported as 207 to 212 °C.
In the case of `C[C@H](NS(=O)(=O)c1ccc(-c2c(C#N)c3cc(OC(F)F)cnc3n2C2CCC2)nc1)C(F)(F)F` [Cpd 122, 6-[3-cyano-1-cyclobutyl-5-(difluoromethoxy)-1H-pyrrolo[2,3-b]pyridin-2-yl]-N-[(2S)-1,1,1-trifluoropropan-2-yl]pyridine-3-sulfonamide], the IC50 [1] is reported as under 500 nM and the melting point is reported as 155 to 156 °C.

Source: US9593108B2, “Compounds and methods for antiviral treatment” (PTC Therapeutics, Inc., priority 2009, dated 2017)
